Results on 1 compound are retold here after BindingDB's records for doi:10.1016/j.bmc.2012.02.019 (Emory University, 2012).

pKi: −log10 of the molar value.

This assay can be described thus: Displacement of [3H]-AVP from human V1b receptor after […] by liquid scintillation counting. On the technique in general: In a radioligand displacement assay an active substance lowers the binding of a labelled ligand.

With `CS(=O)(=O)N1CCC(Oc2ccc(CC(=O)N3CCC(N4C(=O)CCc5ccccc54)CC3)c(OC/C=C/I)c2)CC1`, the negative logarithm of the Ki (pKi) was less than 6.00.

What is called pKi is the negative decadic logarithm of the Ki, by convention in mol/L. Lower therefore signals a high Ki.
